Experiments:
[1] = molecular target: T1, PHGDH (Homo sapiens, UniProt O43175); assay: Ki measurement / competition assay by titrating 3-PG or NAD+; format: biochemical
T1 sequence (O43175 1-533): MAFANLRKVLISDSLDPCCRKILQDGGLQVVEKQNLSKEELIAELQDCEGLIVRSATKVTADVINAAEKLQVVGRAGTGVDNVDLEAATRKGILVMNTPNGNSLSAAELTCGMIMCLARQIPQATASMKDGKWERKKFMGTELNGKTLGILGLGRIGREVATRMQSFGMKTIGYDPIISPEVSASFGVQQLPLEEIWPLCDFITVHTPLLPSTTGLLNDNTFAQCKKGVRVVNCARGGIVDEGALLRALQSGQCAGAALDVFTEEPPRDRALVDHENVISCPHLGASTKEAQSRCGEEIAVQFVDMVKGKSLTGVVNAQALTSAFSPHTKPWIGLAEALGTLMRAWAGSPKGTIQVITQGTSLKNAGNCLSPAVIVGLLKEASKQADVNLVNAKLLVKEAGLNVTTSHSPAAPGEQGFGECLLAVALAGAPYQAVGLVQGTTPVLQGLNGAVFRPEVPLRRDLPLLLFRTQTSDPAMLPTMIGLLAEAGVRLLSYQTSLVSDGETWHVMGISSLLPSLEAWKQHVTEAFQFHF

[2] = tested on: HL-60 shCTRL; assay: Cell proliferation inhibition, HL-60 shCTRL in serine-replete or -deplete medium; format: cell-based, human; conditions: ratio of IC50 in serine-replete to serine-deplete medium
[3] = molecular target: T1, PHGDH; assay: Rapid dilution; format: biochemical; conditions: 160 μM, 45 min at 37 °C, diluted 10-fold
[4] = molecular target: T1, PHGDH; conditions: coupled-enzyme assay
[5] = tested on: SiHa; assay: Cell proliferation inhibition, SiHa in serine-replete or -deplete medium; format: cell-based, human; conditions: ratio of IC50 in serine-replete to serine-deplete medium

SMILES: O=C(C(=S)N1CCOCC1)c1ccccc1 [compound 19, 1-Phenyl-2-morpholino-2-thioxoethanone]
- mode of action with respect to both substrates (3-PG and NAD+) [1]: noncompetitive
- HL-60 shCTRL IC50+Ser/IC50−Ser [2]: >5.5
- recovery of enzymatic activity after dilution [3]: enzymatic activity is not recovered after dilution

SMILES: O=C(C(=S)N1CCOCC1)c1cccc(Cl)c1 [compound 24, 1-(3-Chlorophenyl)-2-morpholino-2-thioxoethanone]
- PHGDH inhibition (IC50, μM) [4]: no inhibition

SMILES: O=C(Nc1ccccc1[N+](=O)[O-])c1ccc(Cl)cc1 [compound 12]
- SiHa IC50+Ser/IC50−Ser [5]: >1.7
- HL-60 shCTRL IC50+Ser/IC50−Ser [2]: >1.2

SMILES: O=C(C(=S)N1CCOCC1)c1ccccc1Cl [compound 23, 1-(2-Chlorophenyl)-2-morpholino-2-thioxoethanone]
- PHGDH inhibition (IC50, μM) [4]: no inhibition
